Reference: the NIST ThermoML archive (doi:10.1021/je800331n)
Numbers after ± are expanded uncertainties.

Conditions: Liquid, Vibrating tube method

mass density (298.15 K)	mass density (303.15 K)	mass density (308.15 K)	mass density (313.15 K)	mass density (323.15 K)	mass density (333.15 K)	mass density (343.15 K)	mass density (353.15 K)	SMILES
1366.57 ± 0.55 kg/m3	1362.23 ± 0.54 kg/m3	1357.92 ± 0.54 kg/m3	1353.63 ± 0.53 kg/m3	1345.33 ± 0.53 kg/m3				CCCCn1cc[n+](C)c1.F[P-](F)(F)(F)(F)F [1-butyl-3-methylimidazolium hexafluorophosphate]
1192.03 ± 0.39 kg/m3	1188.38 ± 0.39 kg/m3		1181.25 ± 0.38 kg/m3	1174.18 ± 0.37 kg/m3	1167.09 ± 0.37 kg/m3	1160.17 ± 0.36 kg/m3	1152.63 ± 0.36 kg/m3	CCCCn1cc[n+](C)c1.F[B-](F)(F)F [1-butyl-3-methylimidazolium tetrafluoroborate]
